Experimental findings from ChEMBL document CHEMBL1201862, “PubChem BioAssay data set” (2004) are described below.

Molecules are shown by their SMILES.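 Cultured in 96-well plates, cells were exposed to test compound for 48 hours across five concentrations. GI50: concentration for 50% inhibition of growth.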 Calls of active or inactive are those of the source. Rule as the data show it: active = GI50 up to about 1.1 µM and inactive = higher.

Test systems include OVCAR-8; UACC-257; RXF 393; PC-3; SW-620; SNB-19; Hs-578T; KM12; RPMI-8226; SN12C; NCI-H226; A549; 786-0; SK-MEL-28; NCI-H522; K562; MOLT-4; NCI-H23; MCF7; SK-MEL-2.
Common to all, as to test: DTP human tumour cell line panel, 48 h

In general, GI50 refers to the concentration at which growth is held to half of that of the control. Regarding `CCc1nc2c(n1CC)C(=O)c1ccccc1C2=O`, the GI50 is 32.8 µM (inactive) in the assay with OVCAR-8; 25.4 µM (inactive) with UACC-257; 19.8 µM (inactive) in the assay with RXF 393; 18.8 µM (inactive) in the assay with PC-3; 26.7 µM (inactive) in the assay with SW-620; 45.6 µM (inactive) with SNB-19. Further, the GI50 in the assay with Hs-578T is 67.6 µM (inactive); with KM12, 45.3 µM (inactive); with RPMI-8226, > 100 µM (inactive); with SN12C it was 27.8 µM (inactive); in the assay on NCI-H226 it was 28.6 µM (inactive); in the assay with A549 it was 43.2 µM (inactive). Also, the GI50 was > 100 µM (inactive) in the assay on 786-0; 56.1 µM (inactive) in the assay on SK-MEL-28; 31.6 µM (inactive) in the assay on NCI-H522; 44.5 µM (inactive) in the assay on K562; 33.9 µM (inactive) in the assay on MOLT-4; 46.8 µM (inactive) in the assay on NCI-H23. The GI50 in the assay on MCF7 is 49.1 µM (inactive).

Consider `CC1=C(C)SC(=C2Sc3[n-]c(=O)[nH]c(=O)c3S2)S1.CCCC[N+](CCCC)(CCCC)CCCC`, for which the GI50 in the assay with OVCAR-8 was 49.4 µM (inactive); in the assay with UACC-257, > 100 µM (inactive); with RXF 393 it was > 100 µM (inactive); in the assay on PC-3, > 100 µM (inactive); with SW-620 it was > 100 µM (inactive); in the assay with SNB-19, 73.1 µM (inactive). The GI50 with Hs-578T was > 100 µM (inactive); with KM12 it was 98.2 µM (inactive); in the assay on RPMI-8226, > 100 µM (inactive); in the assay on SN12C, > 100 µM (inactive); with NCI-H226, > 100 µM (inactive); in the assay with A549 it was > 100 µM (inactive). The GI50 in the assay with 786-0 is > 100 µM (inactive); in the assay with SK-MEL-28, 39.2 µM (inactive); with NCI-H522, 15.1 µM (inactive); in the assay on K562 it was 49.4 µM (inactive); in the assay on MOLT-4, 95.1 µM (inactive); with NCI-H23, > 100 µM (inactive). For the same molecule, in the assay on MCF7, the GI50 was 42.5 µM (inactive).

For the molecule `Cc1ccc(C(=O)/C=C(\O)C(=O)NN=C(c2ccccc2)c2ccccc2)cc1`, the GI50 in the assay on OVCAR-8 is 76.4 µM (inactive); with UACC-257 it was > 100 µM (inactive); in the assay on SK-MEL-2, > 100 µM (inactive); in the assay on RXF 393 it was > 100 µM (inactive); with PC-3, 40.2 µM (inactive); in the assay on SW-620, 50.5 µM (inactive). Also, the GI50 with SNB-19 is 58.9 µM (inactive); with Hs-578T, 56.9 µM (inactive); in the assay with KM12 it was 77.4 µM (inactive); with RPMI-8226 it was 26.6 µM (inactive); in the assay with NCI-H226, > 100 µM (inactive); in the assay with A549, 41.2 µM (inactive). Besides, the GI50 in the assay on 786-0 was 28.4 µM (inactive); with SK-MEL-28, > 100 µM (inactive); in the assay with K562, 17.3 µM (inactive); in the assay with MOLT-4, 58.9 µM (inactive); in the assay on NCI-H23 it was > 100 µM (inactive); in the assay on MCF7, 54.6 µM (inactive).

As for `O=C(NCCCNCCCCNCCCNC(=O)C(F)(F)F)C(F)(F)F`, the GI50 in the assay on OVCAR-8 is > 100 µM (inactive); in the assay on UACC-257, > 100 µM (inactive); in the assay on SK-MEL-2, > 100 µM (inactive); in the assay on RXF 393 it was > 100 µM (inactive); in the assay on PC-3 it was > 100 µM (inactive); with SW-620, 54.8 µM (inactive). The GI50 in the assay on Hs-578T was > 100 µM (inactive); in the assay on KM12, > 100 µM (inactive); in the assay with RPMI-8226 it was > 100 µM (inactive); in the assay with SN12C it was 52.6 µM (inactive); in the assay on NCI-H226 it was > 100 µM (inactive); in the assay on A549, > 100 µM (inactive). The GI50 in the assay on 786-0 is > 100 µM (inactive); with SK-MEL-28, > 100 µM (inactive); in the assay with NCI-H522, > 100 µM (inactive); in the assay with MOLT-4, 0.359 µM (active); in the assay with NCI-H23, > 100 µM (inactive); with MCF7 it was > 100 µM (inactive).

Regarding `CSC1=N/C(=C\c2c[nH]c3ccccc23)C(=O)N1`, the GI50 is > 100 µM (inactive) with OVCAR-8; > 100 µM (inactive) in the assay on UACC-257; 35.8 µM (inactive) in the assay on SK-MEL-2; 92.7 µM (inactive) in the assay on RXF 393; 44.7 µM (inactive) in the assay with PC-3; > 100 µM (inactive) in the assay on SW-620. The GI50 is > 100 µM (inactive) with SNB-19; 43.4 µM (inactive) with Hs-578T; 77.4 µM (inactive) in the assay with RPMI-8226; > 100 µM (inactive) in the assay with SN12C; > 100 µM (inactive) in the assay with NCI-H226; 69.8 µM (inactive) with A549. Moreover, the GI50 in the assay with 786-0 is 84.3 µM (inactive); in the assay on SK-MEL-28, > 100 µM (inactive); in the assay on K562 it was 75.9 µM (inactive); in the assay with MOLT-4 it was > 100 µM (inactive); in the assay on NCI-H23 it was > 100 µM (inactive); with MCF7, 28.8 µM (inactive).

As for `COc1ccc(/C=C2\Sc3nnc(-c4ccccc4)n3N=C2c2cc(F)c(Cl)cc2Cl)cc1OC`, the GI50 in the assay with OVCAR-8 was 48.9 µM (inactive); in the assay with UACC-257 it was > 100 µM (inactive); in the assay with SK-MEL-2 it was > 100 µM (inactive); with RXF 393, 11.7 µM (inactive); with PC-3, 66.2 µM (inactive); in the assay with SW-620 it was 14.2 µM (inactive). For the same molecule, the GI50 is 20.6 µM (inactive) in the assay on Hs-578T; 26.7 µM (inactive) in the assay with KM12; 6.04 µM (inactive) with RPMI-8226; > 100 µM (inactive) in the assay on NCI-H226; 48.4 µM (inactive) in the assay on 786-0; > 100 µM (inactive) in the assay with SK-MEL-28. Further, the GI50 is 12.6 µM (inactive) in the assay with NCI-H522; 9.86 µM (inactive) with K562; 0.948 µM (active) in the assay with MOLT-4; 51.2 µM (inactive) in the assay with NCI-H23; 19.8 µM (inactive) in the assay with MCF7.

As to `COc1ccc(/C=C2\NC(=S)N(/C=C3\C(=O)Oc4ccccc4C3=O)C2=O)cc1OC`, the GI50 was > 100 µM (inactive) with OVCAR-8; > 100 µM (inactive) in the assay with UACC-257; > 100 µM (inactive) in the assay on SK-MEL-2; 77.6 µM (inactive) in the assay with RXF 393; > 100 µM (inactive) in the assay with PC-3; > 100 µM (inactive) with SW-620. Also, the GI50 was > 100 µM (inactive) in the assay on SNB-19; 87.5 µM (inactive) in the assay with Hs-578T; 90.2 µM (inactive) with KM12; > 100 µM (inactive) in the assay on RPMI-8226; > 100 µM (inactive) in the assay on SN12C; > 100 µM (inactive) in the assay with NCI-H226. The GI50 in the assay with A549 was > 100 µM (inactive); with 786-0, > 100 µM (inactive); in the assay with NCI-H522 it was 22.6 µM (inactive); with K562, > 100 µM (inactive); in the assay on MOLT-4, > 100 µM (inactive); in the assay on NCI-H23 it was > 100 µM (inactive). Besides, the GI50 in the assay with MCF7 is > 100 µM (inactive).

On to `Cc1ccc(/C=N/Nc2ccccn2)s1`, for which the GI50 in the assay on OVCAR-8, in the assay on UACC-257, in the assay on SK-MEL-2, in the assay on RXF 393, with PC-3 and with SW-620 was > 100 µM (inactive) throughout. The GI50 was > 100 µM (inactive) with SNB-19; > 100 µM (inactive) with Hs-578T; > 100 µM (inactive) with KM12; > 100 µM (inactive) in the assay on RPMI-8226; > 47.4 µM (inactive) in the assay on SN12C; > 56.5 µM (inactive) with NCI-H226. For the same molecule, the GI50 was > 100 µM (inactive) in the assay with A549; > 54.7 µM (inactive) in the assay with 786-0; > 100 µM (inactive) with SK-MEL-28; 12.5 µM (inactive) with NCI-H522; > 100 µM (inactive) with MOLT-4; > 100 µM (inactive) in the assay with NCI-H23. Moreover, the GI50 in the assay on MCF7 was 21.1 µM (inactive).

As for `CCOc1cc(C2SCC(=O)N2c2ccc3c(c2)Oc2c(Cl)c4c(c(Cl)c2=N3)Oc2cc(N3C(=O)CSC3c3ccc(O)c(OCC)c3)ccc2N=4)ccc1O` (stereo not drawn), the GI50 was 32.7 µM (inactive) in the assay with OVCAR-8; 80.9 µM (inactive) in the assay on UACC-257; 27.5 µM (inactive) in the assay with SK-MEL-2; 21.3 µM (inactive) in the assay with RXF 393; 48.6 µM (inactive) with PC-3; 54.7 µM (inactive) with SW-620. The GI50 with Hs-578T is 73.5 µM (inactive); in the assay with KM12, 40.9 µM (inactive); in the assay with RPMI-8226 it was 31.8 µM (inactive); with NCI-H226, 25.9 µM (inactive); in the assay on A549, 23.8 µM (inactive); in the assay on 786-0 it was 30.1 µM (inactive). For the same molecule, the GI50 was 37.8 µM (inactive) in the assay with SK-MEL-28; 34 µM (inactive) with NCI-H522; 27 µM (inactive) in the assay with K562; 2.25 µM (inactive) in the assay on MOLT-4; 21 µM (inactive) in the assay on NCI-H23; 33.3 µM (inactive) in the assay on MCF7.

Take `OCCNCCN1CCN(CCCN2c3ccccc3Sc3ccc(C(F)(F)F)cc32)CC1`: the GI50 in the assay on OVCAR-8 is 18 µM (inactive); in the assay with UACC-257 it was 20.3 µM (inactive); with SK-MEL-2, 21.5 µM (inactive); with RXF 393, 26.3 µM (inactive); in the assay on PC-3, 32 µM (inactive); in the assay on SW-620, 19.2 µM (inactive). Besides, the GI50 with SNB-19 is 24.7 µM (inactive); with Hs-578T, 47.3 µM (inactive); in the assay on KM12, 27.2 µM (inactive); in the assay on RPMI-8226, > 100 µM (inactive); in the assay on SN12C, 18.2 µM (inactive); in the assay on NCI-H226, 26.5 µM (inactive). Moreover, the GI50 in the assay on A549 is 24 µM (inactive); in the assay on 786-0, 17.3 µM (inactive); with SK-MEL-28, 23.6 µM (inactive); in the assay with NCI-H522 it was 19.2 µM (inactive); in the assay with MOLT-4 it was > 100 µM (inactive); in the assay with NCI-H23 it was 27.2 µM (inactive). Moreover, the GI50 in the assay with MCF7 was 23.6 µM (inactive).

With `O=C1CC(=O)NC(NN2C(=O)CSC2c2ccccc2)=N1` (stereo not drawn), the GI50 in the assay on OVCAR-8, in the assay on UACC-257, in the assay with SK-MEL-2, with RXF 393, with PC-3 and in the assay with SW-620 was > 100 µM (inactive) in each case. Also, the GI50 in the assay on Hs-578T, in the assay with KM12, with RPMI-8226, with SN12C, in the assay on NCI-H226 and in the assay on A549 was > 100 µM (inactive) in each case. Besides, the GI50 in the assay with 786-0, with SK-MEL-28, in the assay on NCI-H522, with K562, in the assay with MOLT-4 and with NCI-H23 was > 100 µM (inactive) in each case. The GI50 in the assay with MCF7 is > 100 µM (inactive).
